Experiments:
DNA polymerase beta = DNA polymerase beta (Homo sapiens, UniProt P06746); assay: DNA Pol β PEX Assay; conditions: pH 7.9
Protocol: Pol β reactions were made in a final volume of 20uL containing 50mM Tris-HCl pH 7.9, 20mM KCl, 5% (v/v) glycerol, 1mM DTT, 2mM MnCl2, 250nM purified recombinant pol β, 150nM radioactive-labeled primer F20H, 225nM template F33A, 0.1mg/mL BSA, 1uL compound solution with various concentrations in DMSO (1uL DMSO for the solvent control). 5uL dNTP (15uM final) was added to initiate the reactions and positive controls. Reactions and controls were incubated for 30 min at 37 degrees Celsius and subsequently quenched using 45uL PAGE loading solution (80% (v/v) formamide, 20mM EDTA, 0.05% (w/v) bromophenol blue, 0.05% (w/v) xylene cyanol) per well. The reaction mixture was denatured for 5 min at 95 degrees Celsius and analyzed by 12% PAGE containing 8M urea.

DNA polymerase lambda = target: T1, DNA polymerase lambda (Homo sapiens, UniProt Q9UGP5); assay: DNA Pol λ PEX Assay; conditions: pH 7.5
T1 sequence (Q9UGP5 whole entry): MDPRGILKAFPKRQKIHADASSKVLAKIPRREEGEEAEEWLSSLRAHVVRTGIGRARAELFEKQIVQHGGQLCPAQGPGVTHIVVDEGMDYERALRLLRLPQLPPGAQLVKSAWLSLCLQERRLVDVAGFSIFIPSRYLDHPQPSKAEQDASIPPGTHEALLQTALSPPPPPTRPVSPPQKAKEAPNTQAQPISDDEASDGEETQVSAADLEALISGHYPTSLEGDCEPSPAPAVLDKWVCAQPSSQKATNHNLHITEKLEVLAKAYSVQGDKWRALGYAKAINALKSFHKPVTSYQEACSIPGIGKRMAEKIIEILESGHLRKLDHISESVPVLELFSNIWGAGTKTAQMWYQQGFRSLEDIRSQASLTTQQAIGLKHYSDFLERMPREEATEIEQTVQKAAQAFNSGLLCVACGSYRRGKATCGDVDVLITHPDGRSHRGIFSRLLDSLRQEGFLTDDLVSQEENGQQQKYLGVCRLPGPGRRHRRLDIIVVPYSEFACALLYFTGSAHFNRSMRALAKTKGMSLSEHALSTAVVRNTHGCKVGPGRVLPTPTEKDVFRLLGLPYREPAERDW
Protocol: Pol λ reactions were made in a final volume of 20uL containing 50mM Tris-HCl pH 7.5, 1.5mM MgCl2, 5% (v/v) glycerol, 1mM DTT, 250nM purified recombinant pol λ, 150nM radioactive-labled primer F20H, 225nM template F33A, 0.1mg/mL BSA, 1uL compound solution with variable concentrations in DMSO (1uL DMSO for the solvent control). 5uL dNTP solution (15uM final) was added to initiate the reactions and positive controls. Reactions and controls were incubated for 30 min at 37 degrees Celsius and subsequently quenched using 45uL PAGE loading solution (80% (v/v) formamide, 20mM EDTA, 0.05% (w/v) bromophenol blue, 0.05% (w/v) xylene cyanol) per well. The reaction mixture was denatured for 5 min at 95 degrees Celsius and analyzed by 12% PAGE containing 8M urea.

Row | SMILES | IC50 (DNA polymerase beta) | IC50 (DNA polymerase lambda)
1 | Cc1ccccc1Sc1ccc(C=C2SC(S)=NC2=O)cc1F [(Z)-5-(3-Fluoro-4-(o-tolylthio)benzylidene)-2-thioxothiazolidin-4-one 29] | 50 µM | < 10 µM
2 | Cc1ccc(Sc2ccc(C=C3SC(S)=NC3=O)cc2F)cc1 [(Z)-5-(3-Fluoro-4-(p-tolylthio)benzylidene)-2-thioxothiazolidin-4-one 12] | 38.7 µM | < 10 µM
3 | Cc1ccc(Sc2ccc(C=C3SC(S)=NC3=O)cc2)cc1 [(Z)-2-Thioxo-5-(4-(p-tolylthio)benzylidene)thiazolidin-4-one 11] | < 50 µM | < 10 µM
4 | Cc1ccc(Sc2ccc(C=C3SC(S)=NC3=O)c(Sc3ccc(C)cc3)c2)cc1 [(Z)-5-(2,4-Bis(p-tolylthio)benzylidene)-2-thioxothiazolidin-4-one 31] | < 50 µM | 4 µM
5 | Cc1ccc(Sc2ccc(C=C3SC(S)=NC3=O)cc2Cl)cc1 [(Z)-5-(3-Chloro-4-(p-tolylthio)benzylidene)-2-thioxothiazolidin-4-one 13] | > 50 µM | 5.7 µM
6 | CCc1ccc(Sc2ccc(C=C3SC(S)=NC3=O)cc2[N+](=O)[O-])cc1 [(Z)-5-(4-((4-Ethylphenyl)thio)-3-nitrobenzylidene)-2-thioxothiazolidin-4-one 17] | < 50 µM | < 10 µM
7 | O=C1N=C(S)SC1=Cc1ccc(SC2CCCCC2)c([N+](=O)[O-])c1 [(Z)-5-(4-(Cyclohexylthio)-3-nitrobenzylidene)-2-thioxothiazolidin-4-one 2] | < 50 µM | < 10 µM
8 | Cc1ccc(S(=O)(=O)c2ccc(C=C3SC(S)=NC3=O)cc2[N+](=O)[O-])cc1 [(Z)-5-(3-Nitro-4-tosylbenzylidene)-2-thioxothiazolidin-4-one 10] |  | < 20 µM
9 | O=C1N=C(S)SC1=Cc1ccc(SC2CCCC2)c([N+](=O)[O-])c1 [(Z)-5-(4-(Cyclopentylthio)-3-nitrobenzylidene)-2-thioxothiazolidin-4-one 26] | > 50 µM | < 20 µM
10 | O=C1N=C(S)SC1=Cc1ccc(Sc2ccc(OC(F)(F)F)cc2)c([N+](=O)[O-])c1 [(Z)-5-(3-Nitro-4-((4-(trifluoromethoxy)phenyl)thio)benzylidene)-2-thioxothiazolidin-4-one 19] | > 50 µM | < 20 µM
11 | Cc1ccc(Sc2ccc(C=C3SC(S)=NC3=O)cc2[N+](=O)[O-])cc1 [DNA polymerase inhibitor 1] | 64.4 µM | 5.9 µM
12 | Cc1ccc(Sc2ccc(C=C3SC(O)=NC3=O)cc2[N+](=O)[O-])cc1 [(Z)-5-(3-Nitro-4-(p-tolylthio)benzylidene)thiazolidine-2,4-dione 3] | > 50 µM | < 10 µM
13 | Cc1ccccc1Sc1ccc(C=C2SC(S)=NC2=O)cc1 [23 (Z)-2-Thioxo-5-(4-(o-tolylthio)benzylidene)thiazolidin-4-one 28] | 50 µM | < 10 µM
14 | Cc1ccc(Sc2ccc(C=C3SC(S)=NC3=O)cc2C(F)(F)F)cc1 [(Z)-2-Thioxo-5-(4-(p-tolylthio)-3-(trifluoromethyl)benzylidene)thiazolidin-4-one 15] | 28.1 µM | < 10 µM
15 | Cc1ccc(Sc2ccc(C=C3SC(S)=NC3=O)cc2C#N)cc1 [(Z)-5-((4-Oxo-2-thioxothiazolidin-5-ylidene)methyl)-2-(ptolylthio) benzonitrile 16] |  | < 10 µM
16 | Cc1ccccc1Sc1ccc(C=C2SC(S)=NC2=O)cc1C(F)(F)F [(Z)-2-Thioxo-5-(4-(o-tolylthio)-3-(trifluoromethyl)benzylidene)thiazolidin-4-one 30] | < 50 µM | < 10 µM
17 | Cc1ccc(Sc2ccc(C=C3SC(S)=NC3=O)cc2Br)cc1 [(Z)-5-(3-Bromo-4-(p-tolylthio)benzylidene)-2-thioxothiazolidin-4-one 14] | > 50 µM | < 10 µM
18 | Cc1ccc(Sc2sc(C=C3SC(S)=NC3=O)cc2Br)cc1 [(Z)-5-((4-Bromo-5-(p-tolylthio)thiophen-2-yl)methylene)-2-thioxothiazolidin-4-one 32] | < 50 µM | < 10 µM
19 | C=C(c1ccc(Sc2ccc(C)cc2)c([N+](=O)[O-])c1)c1sc(S)nc1O [(Z)-5-(1-(3-Nitro-4-(p-tolylthio)phenyl)ethylidene)-2-thioxothiazolidin-4-one 8] | < 50 µM | < 10 µM
20 | O=C1N=C(S)SC1=Cc1ccc(Sc2c(F)c(F)c(C(F)(F)F)c(F)c2F)c([N+](=O)[O-])c1 [(Z)-5-(3-Nitro-4-((2,3,5,6-tetrafluoro-4-(trifluoromethyl)phenyl)thio)benzylidene)-2-thioxothiazolidin-4-one 21] | > 50 µM | < 10 µM
21 | Cc1cccc(Sc2ccc(C=C3SC(S)=NC3=O)cc2[N+](=O)[O-])c1 [(Z)-5-(3-Nitro-4-(m-tolylthio)benzylidene)-2-thioxothiazolidin-4-one 22] | 29.8 µM | 6 µM
22 | O=C1N=C(S)SC1=Cc1ccc(Sc2ccc3ccccc3c2)c([N+](=O)[O-])c1 [(Z)-5-(4-(Naphthalen-2-ylthio)-3-nitrobenzylidene)-2-thioxothiazolidin-4-one 25] | > 50 µM | < 10 µM
23 | Cc1ccc(Sc2ccc(C=C3SC(S)=NC3=O)cc2Br)cc1F [(Z)-5-(3-Bromo-4-((3-fluoro-4-methylphenyl)thio)benzylidene)-2-thioxothiazolidin-4-one 27] | > 50 µM | 4 µM
24 | Cc1ccc(Sc2ccc(C=C3SC(S)=NC3=O)cc2[N+](=O)[O-])cc1F [(Z)-5-(4-((3-Fluoro-4-methylphenyl)thio)-3-nitrobenzylidene)-2-thioxothiazolidin-4-one 20] | > 50 µM | < 10 µM
25 | Cc1ccccc1Sc1ccc(C=C2SC(S)=NC2=O)cc1[N+](=O)[O-] [(Z)-5-(3-Nitro-4-(o-tolylthio)benzylidene)-2-thioxothiazolidin-4-one 23] | 18.2 µM | 3.9 µM
26 | O=C1N=C(S)SC1=Cc1ccc(Sc2ccc(C(F)(F)F)cc2)c([N+](=O)[O-])c1 [(Z)-5-(3-Nitro-4-((4-(trifluoromethyl)phenyl)thio)benzylidene)-2-thioxothiazolidin-4-one 18] | > 50 µM | < 10 µM

— BindingDB's records for doi:10.1021/cb4007562 (University of Konstanz, 2014)
